Patent publication US9738636B2, “Fused heterocyclic compounds as selective BMP inhibitors” (Vanderbilt University, priority 2012, dated 2017)

Test system: BMP4
Experiment: BMP4 cell assay (BMP reporter)
Assay type: cell-based
Conditions: series of scaffold drawing 183 (R, R1)

IC50: 6.1 µM
SMILES: c1cc(-c2cnc3cc(-c4ccc5c(c4)OCCO5)ccn23)ccn1 [Example 6, 7-(2,3-dihydrobenzo[b][1,4]dioxin-6-yl)-3-(pyridin-4-yl)imidazo[1,2-a]pyridine]
